Results as given in patent publication US12187742B2 (XRAD Therapeutics, Inc., priority 2018, dated 2025).
Counter-ions that a name gives are not always drawn.

Columns and labels:
ATM = ATM (Homo sapiens (Human), UniProt Q13315); assay: ATM in Cell Western Assay (pKAP1 in etoposide-treated MCF-7 cells); assay type: cell-based
Summary of the method: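 Cells received compounds in a 10-dose, 3-fold series from a 1 μM final top concentration, then 100 μM etoposide, for 1 hr at 37° C. They were then fixed with paraformaldehyde and permeabilized with 0.1% Triton X-100. After immunostaining, plates were scanned on an infrared imager.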

DNA-PK = DNA-PK (Homo sapiens (Human), UniProt P78527); assay: DNA-PK Enzyme-Linked Immunosorbent Assay (phosphorylation of GST-p53 (1-101) peptide); assay type: biochemical; details: ELISA
Summary of the method: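 ELISA with plate-bound GST-p53 (1-101) phosphorylated by DNA-PK (0.1 μg/mL final) with 20 μM ATP for 1 h at 25 °C. Compounds tested over 10 3-fold doses from 100 nM top final. Phospho-p53 Ser15 detected by antibody, HRP and TMB, absorbance at 450 nm.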

[1] = MCF-7 cells, etoposide 100 μM, 1 hr, pKAP1 readout
[2] = pKAP1 in etoposide-treated MCF-7 cells

ATM, sequence (Q13315 whole entry): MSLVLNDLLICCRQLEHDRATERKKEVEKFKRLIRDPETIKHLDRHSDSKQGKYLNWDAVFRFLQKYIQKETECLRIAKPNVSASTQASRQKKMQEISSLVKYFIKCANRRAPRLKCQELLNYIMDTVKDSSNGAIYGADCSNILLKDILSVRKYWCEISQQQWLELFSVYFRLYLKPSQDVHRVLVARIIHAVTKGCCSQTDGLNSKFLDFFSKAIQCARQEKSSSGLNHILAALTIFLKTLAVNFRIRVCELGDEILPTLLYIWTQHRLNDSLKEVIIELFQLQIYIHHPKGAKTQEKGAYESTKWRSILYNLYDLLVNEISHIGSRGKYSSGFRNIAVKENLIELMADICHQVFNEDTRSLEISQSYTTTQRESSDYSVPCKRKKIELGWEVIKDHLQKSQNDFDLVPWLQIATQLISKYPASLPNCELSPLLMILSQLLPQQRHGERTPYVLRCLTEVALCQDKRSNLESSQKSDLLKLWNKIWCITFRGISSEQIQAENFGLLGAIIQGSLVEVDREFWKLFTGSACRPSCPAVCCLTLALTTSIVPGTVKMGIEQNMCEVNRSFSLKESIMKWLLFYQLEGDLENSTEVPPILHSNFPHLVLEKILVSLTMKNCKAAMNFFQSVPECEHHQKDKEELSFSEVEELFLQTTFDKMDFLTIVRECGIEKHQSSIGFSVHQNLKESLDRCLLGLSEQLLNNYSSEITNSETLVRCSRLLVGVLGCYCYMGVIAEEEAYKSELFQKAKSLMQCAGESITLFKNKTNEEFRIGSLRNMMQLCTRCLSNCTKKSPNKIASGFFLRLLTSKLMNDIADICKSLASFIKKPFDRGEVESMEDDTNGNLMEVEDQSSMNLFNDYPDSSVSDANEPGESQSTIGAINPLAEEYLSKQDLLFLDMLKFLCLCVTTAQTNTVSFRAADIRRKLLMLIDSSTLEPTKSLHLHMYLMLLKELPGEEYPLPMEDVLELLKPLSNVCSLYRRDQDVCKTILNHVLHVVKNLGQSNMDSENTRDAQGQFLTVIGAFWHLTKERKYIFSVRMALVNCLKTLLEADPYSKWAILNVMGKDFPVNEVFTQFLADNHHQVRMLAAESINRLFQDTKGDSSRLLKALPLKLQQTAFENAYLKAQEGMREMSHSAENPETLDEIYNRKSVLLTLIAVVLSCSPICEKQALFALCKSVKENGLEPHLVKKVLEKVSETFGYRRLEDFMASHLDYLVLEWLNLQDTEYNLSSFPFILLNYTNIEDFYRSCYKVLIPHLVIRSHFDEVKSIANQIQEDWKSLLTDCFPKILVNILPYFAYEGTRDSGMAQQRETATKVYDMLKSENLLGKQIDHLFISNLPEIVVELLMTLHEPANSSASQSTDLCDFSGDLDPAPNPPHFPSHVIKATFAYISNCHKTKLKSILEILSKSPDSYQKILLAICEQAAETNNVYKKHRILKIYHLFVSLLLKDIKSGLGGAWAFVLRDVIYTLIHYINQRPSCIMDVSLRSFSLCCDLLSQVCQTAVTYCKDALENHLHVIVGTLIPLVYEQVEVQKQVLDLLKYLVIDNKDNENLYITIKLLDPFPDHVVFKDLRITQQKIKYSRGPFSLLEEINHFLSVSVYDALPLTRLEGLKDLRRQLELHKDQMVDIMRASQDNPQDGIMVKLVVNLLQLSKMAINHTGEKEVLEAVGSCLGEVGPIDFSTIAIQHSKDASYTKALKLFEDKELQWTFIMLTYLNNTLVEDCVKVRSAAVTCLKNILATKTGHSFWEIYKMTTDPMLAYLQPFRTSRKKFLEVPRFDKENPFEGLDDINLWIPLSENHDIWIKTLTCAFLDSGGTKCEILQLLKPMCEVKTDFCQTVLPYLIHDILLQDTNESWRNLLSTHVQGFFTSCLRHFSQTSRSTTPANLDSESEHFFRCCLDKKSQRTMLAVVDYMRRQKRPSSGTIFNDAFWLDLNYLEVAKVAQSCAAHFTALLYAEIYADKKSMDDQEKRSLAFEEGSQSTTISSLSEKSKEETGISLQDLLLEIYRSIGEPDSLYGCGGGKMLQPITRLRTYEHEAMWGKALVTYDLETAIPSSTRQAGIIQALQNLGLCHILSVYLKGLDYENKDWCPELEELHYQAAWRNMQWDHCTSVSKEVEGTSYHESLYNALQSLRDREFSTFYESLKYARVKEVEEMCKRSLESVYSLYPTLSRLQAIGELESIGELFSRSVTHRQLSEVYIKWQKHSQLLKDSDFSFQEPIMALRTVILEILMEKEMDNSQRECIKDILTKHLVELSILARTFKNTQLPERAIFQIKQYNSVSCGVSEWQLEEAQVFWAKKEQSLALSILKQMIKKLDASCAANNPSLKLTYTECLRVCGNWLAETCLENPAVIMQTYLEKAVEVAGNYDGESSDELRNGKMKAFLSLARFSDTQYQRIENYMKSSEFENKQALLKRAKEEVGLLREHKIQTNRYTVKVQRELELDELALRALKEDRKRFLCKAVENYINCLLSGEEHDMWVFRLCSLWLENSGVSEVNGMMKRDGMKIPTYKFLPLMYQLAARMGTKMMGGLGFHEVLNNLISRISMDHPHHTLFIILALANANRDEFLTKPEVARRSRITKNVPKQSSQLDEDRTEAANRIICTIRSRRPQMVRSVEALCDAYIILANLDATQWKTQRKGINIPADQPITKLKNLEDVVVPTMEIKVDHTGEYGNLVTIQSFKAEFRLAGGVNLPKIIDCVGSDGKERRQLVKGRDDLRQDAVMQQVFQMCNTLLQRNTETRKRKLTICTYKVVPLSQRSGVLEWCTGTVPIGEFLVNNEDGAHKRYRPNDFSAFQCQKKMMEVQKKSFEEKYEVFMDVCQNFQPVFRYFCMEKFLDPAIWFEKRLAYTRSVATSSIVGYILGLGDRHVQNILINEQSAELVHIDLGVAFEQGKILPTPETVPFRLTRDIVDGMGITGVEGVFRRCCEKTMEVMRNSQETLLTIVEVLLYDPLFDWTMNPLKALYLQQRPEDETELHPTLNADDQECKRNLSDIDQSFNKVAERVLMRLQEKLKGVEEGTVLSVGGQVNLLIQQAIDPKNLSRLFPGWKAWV

IC50 (ATM; [1]) [nM]	IC50 (DNA-PK; ATP 20 μM) [nM]	IC50 (ATM; [2]) [nM]	IC50 (DNA-PK; 20 μM ATP) [nM]	Structure (SMILES)
1 to 100	< 0.5			CN(C)CCCOc1ncc(-c2ccc3ncc4c(c3c2)C2(CCC2)C(=O)N4C)cc1NS(=O)(=O)C1COC1 [Example 205, N-(2-(3-(Dimethylamino)propoxy)-5-(3′-methyl-2′-oxo-2′,3′-dihydrospiro[cyclobutane-1,1′-pyrrolo[2,3-c]quinolin]-8′-yl)pyridin-3-yl)oxetane-3-sulfonamide]
		1 to 100	1 to 100	CO[C@H]1C[C@]2(C1)C(=O)N(C)c1cnc3cc(F)c(-c4cnc(OCCNC(C)C)c(NS(=O)(=O)C5CC5)c4)cc3c12 [Example 387, cis-N-(5-(7′-Fluoro-3-methoxy-3′-methyl-2′-oxo-2′,3′-dihydrospiro[cyclobutane-1,1′-pyrrolo[2,3-c]quinolin]-8′-yl)-2-(2-(isopropylamino)ethoxy)pyridin-3-yl)cyclopropanesulfonamid]
		1 to 100	1 to 100	CC(C)NCCOc1ncc(-c2cc3c4c(cnc3cc2F)N(C)C(=O)C42CN(c3ccc(OC(F)(F)F)cc3)C2)cc1NS(C)(=O)=O [Example 541, N-(5-(7′-Fluoro-3′-methyl-2′-oxo-1-(4-(trifluoromethoxy)phenyl)-2′,3′-dihydrospiro[azetidine-3,1′-pyrrolo[2,3-c]quinolin]-8′-yl)-2-(2-(isopropylamino)ethoxy)pyridin-3-yl)methanesulfonamide]
		1 to 100	1 to 100	COc1ccc([C@H]2C[C@]3(C2)C(=O)N(C)c2cnc4cc(F)c(-c5cnc(OCCNC(C)C)c(NS(C)(=O)=O)c5)cc4c23)cn1 [Example 430]
0.5 to 1	1 to 100			CN(C)CCCOc1ncc(-c2ccc3ncc4c(c3c2)C2(CCC2)C(=O)N4C)cc1NS(=O)(=O)CCN(C)C [Example 264, 2-(Dimethylamino)-N-(2-(3-(dimethylamino)propoxy)-5-(3′-methyl-2′-oxo-2′,3′-dihydrospiro[cyclobutane-1,1′-pyrrolo[2,3-c]quinolin]-8′-yl)pyridin-3-yl)ethane-1-sulfonamide]
1 to 100	1 to 100			CN(C)CCCOc1ncc(-c2cc3c4c(cnc3cc2F)N(C)C(=O)C42CC2)cc1NS(=O)(=O)c1ccccc1 [Example 65, N-(2-(3-(Dimethylamino)propoxy)-5-(7′-fluoro-3′-methyl-2′-oxo-2′,3′-dihydrospiro [cyclopropane-1,1′-pyrrolo[2,3-c]quinolin]-8′-yl)pyridin-3-yl) benzenesulfonamide]
1 to 100	< 0.5			Cc1ccc(S(=O)(=O)Nc2cc(-c3ccc4ncc5c(c4c3)C3(CCC3)C(=O)N5C)cnc2N2CCN(C)CC2)cn1 [Example 201, 6-Methyl-N-(5-(3′-methyl-2′-oxo-2′,3′-dihydrospiro[cyclobutane-1,1′-pyrrolo[2,3-c]quinolin]-8′-yl)-2-(4-methylpiperazin-1-yl)pyridin-3-yl)pyridine-3-sulfonamide]
1 to 100	1 to 100			CN1C(=O)C2(CCC2)c2c1cnc1cc(F)c(-c3cnc(N4CC(N(C)C)C4)c(NS(=O)(=O)c4ccccc4)c3)cc21 [Example 324, N-(2-(3-(Dimethylamino)azetidin-1-yl)-5-(7′-fluoro-3′-methyl-2′-oxo-2′,3′-dihydrospiro[cyclobutane-1,1′-pyrrolo[2,3-c]quinolin]-8′-yl)pyridin-3-yl)benzenesulfonamide hydrochloride]
1 to 100	< 0.5			CC(C)NCCOc1ncc(-c2ccc3ncc4c(c3c2)C2(CCCC2)C2=NCCN24)cc1NS(C)(=O)=O [Example 257, N-(5-(8′,9′-Dihydrospiro[cyclopentane-1,11′-imidazo[1′,2′:1,5]pyrrolo[2.3-c]quinolin]-2′-yl)-2-(2-(isopropylamino)ethoxy)pyridin-3-yl)methanesulfonamide]
